Where “and” joins values, the source holds several entries; their conditions need not be identical. Equal values may be shown once.
Legend:
[1] = tested on: inflammatory cells in BALF (neutrophils, macrophages, lymphocytes); assay: Inflammatory cell analysis in BALF of M. pneumoniae-infected mice; type: in vivo, BALB/c mice; conditions: for number of cells in BALF four days following treatment cessation: 192 h, similar to control group (P> 0.05)
Description: (§1) Adult BALB/c mice (20–22 g) were divided into a control group, a positive group, and compound 16C groups at low (20 mg/kg), medium (40 mg/kg), and high-dose (80 mg/kg) levels and oral and intramuscular tiamulin treatment groups (40 mg/kg). We formulated the above dose range based on the dose at which tiamulin was approved for injection (10–20 mg/kg) and the dose previously reported (45 mg/kg) ([EMA, 1999]; [Xiao et al., 2016]). In summary, we selected similar doses for compound 16C in vivo study. 40 mg/kg was used as an intermediate value, one-half of it as a low dose, and two times of it as a high dose. To prepare the challenge solution, logarithmic phase culture suspensions were centrifuged at 1700 g for 10 min, and the pellets were suspended in sterile PBS to obtain 1 × 10^9 CFU/mL. Before the challenge, mice were anesthetized with tribromoethanol (250 mg/kg, IP). Mice in the control groups were intratracheally inoculated with sterile PBS, whereas mice in the other groups were intratracheally challenged with 50 μL (1 × 10^9 CFU/mL) M. pneumoniae suspension once a day for 3 days. Compound 16C and tiamulin (tiamulin-IM group) dissolved using the method mentioned in pharmacokinetic studies, and the tiamulin fumarate soluble powder was dissolved in ddH2O for oral administration. After the final challenge, antibiotics were administered at low, medium, and high-dose levels (see above) at 10 a.m. and 10 p.m. daily for 4 consecutive days. Normal saline containing 5% DMSO and 5% Tween-80 was administered as control and positive groups by thigh intramuscular injection. To compare the efficacy of compound 16C and tiamulin under the same route of administration, we used the original tiamulin for intramuscular administration in the same formulation. On the other hand, tiamulin fumarate soluble powder, approved for oral administration to treat animal mycoplasma diseases in China, was administered to mice by gavage. Based on a clinical study of lefamulin in community-acquired bacterial pneumonia (CABP), subjects were administered twice a day and the 96 ± 24 h of starting treatment was an essential point for early clinical response (ECR) ([Paukner et al., 2022]). We therefore stopped treatment at 96 h and sampled at 192 h to explore whether the disease worsened after cessation of treatment. Bronchoalveolar lavage fluid (BALF) and lungs were collected at 0, 96, 192 h (Samples of 0 h were collected before starting treatment, and mice were fed ad libitum without drug treatment during 96–192 h) after the first dose, BALF for cytokine and cytological analysis and lung for histopathological evaluation.
(§2) Bronchoalveolar lavage was performed according to a standardized method ([Van Hoecke et al., 2017]). BALF was obtained following infusion of 0.5 mL PBS via tracheal cannulation into the lung twice (total 1 mL), and 200 µL was used for mycoplasma counts. The remaining BALF was centrifuged at 300 g for 10 min to separate the debris. The supernatants were stored at −80°C, and the debris was resuspended in the same volume of PBS containing red blood cell lysis buffer. A hemocytometer was used to count total cell numbers in BALF, and cell smears (Diff-Quik staining) were prepared to calculate the percentages of neutrophils, macrophages, and lymphocytes. IFN-γ, TNF-α, and CXCL1 levels in BALF samples were assessed using commercial ELISA kits using guidelines recommended by the manufacturer (Elabscience, Wuhan, China). Parallel data for each experimental group at each time point were obtained from six different mice.

TNF-α = TNF-α in BALF of M. pneumoniae-infected mice (ELISA); type: in vivo, BALB/c mice; conditions: for TNF-α in BALF (AV): group AV; for TNF-α in BALF: individual mice
Description: as §1, §2

[2] = Tiamulin(40mg/kg) group, time 0
[3] = Tiamulin(40mg/kg) group, time 96
[4] = Tiamulin(40mg/kg) group, time 192
[5] = tiamulin 40 mg/kg IM, 96 h, listed as Tiamulin-IM
[6] = compound 16C 20 mg/kg IM, 192 h
[7] = compound 16C 40 mg/kg IM, 192 h
[8] = compound 16C 80 mg/kg IM, 192 h

C=C[C@]1(C)C[C@@H](OC(=O)CSCCN(CC)CC)[C@]2(C)[C@H](C)CC[C@]3(CCC(=O)[C@H]32)[C@@H](C)[C@@H]1O [tiamulin, Tiamulin, reference compound]
cell counts, total (AV) [1, 2]: 30.4125 n*10^5
cell counts, 中 (neutrophils) (AV) [1, 2]: 26.5281 n*10^5
cell counts, 巨 (macrophages) (AV) [1, 2]: 3.545 n*10^5
cell counts, 淋 (lymphocytes) (AV) [1, 2]: 0.3394 n*10^5
cell counts, total (AV) [1, 3]: 9.854 n*10^5
cell counts, 中 (neutrophils) (AV) [1, 3]: 1.672 n*10^5
cell counts, 巨 (macrophages) (AV) [1, 3]: 3.529 n*10^5
cell counts, 淋 (lymphocytes) (AV) [1, 3]: 4.653 n*10^5
cell counts, total (AV) [1, 4]: 10.35 n*10^5
cell counts, 中 (neutrophils) (AV) [1, 4]: 0.1129 n*10^5
cell counts, 巨 (macrophages) (AV) [1, 4]: 3.034 n*10^5
cell counts, 淋 (lymphocytes) (AV) [1, 4]: 7.204 n*10^5
total number of inflammatory cells in BALF compared with the positive controls ([1]; tiamulin intramuscular 40 mg/kg, 96 h): significantly lower
number of cells in BALF four days following treatment cessation ([1]; tiamulin intramuscular 40 mg/kg): lower than that of the positive control
total number of inflammatory cells in BALF compared with the positive controls ([1]; tiamulin orally administered 40 mg/kg, 96 h): not statistically significant
TNF-α in BALF (AV) (TNF-α; [5]): 25.628 pg/mL
TNF-α in BALF (AV) (TNF-α; tiamulin 40 mg/kg IM, 96 h, listed as TiamulinIM): 25.4267 pg/mL
TNF-α in BALF (TNF-α; [5]): 36.6513 pg/mL and 20.2192 pg/mL and 19.4095 pg/mL and 27.905 pg/mL and 23.325 pg/mL and 26.258 pg/mL
TNF-α in BALF (AV) (TNF-α; tiamulin 40 mg/kg IM, 192 h): 10.6403 pg/mL
TNF-α in BALF (TNF-α; tiamulin 40 mg/kg IM, 192 h, listed as Tiamulin-IM): 0.9088 pg/mL and 8.569 pg/mL and 21.5375 pg/mL and 21.2768 pg/mL
TNF-α in BALF (AV) (TNF-α; tiamulin 40 mg/kg PO (fumarate soluble powder), 96 h): 17.9906 pg/mL
TNF-α in BALF (AV) (TNF-α; tiamulin 40 mg/kg PO (fumarate soluble powder), 192 h): 9.318 pg/mL

C=CC1(C)CC(OC(=O)CSc2ccc(NC(=O)Cc3ccc([N+](=O)[O-])cc3)cc2)C2(C)C(C)CCC3(CCC(=O)C32)C(C)C1O (stereo not drawn) [compound 16C, 22–((4-((4-nitrophenyl)acetamido)phenyl)thio)deoxypleuromutilin]
cell counts, total (AV) ([1]; 20mg/kg, time 0): 48.3833 n*10^5
cell counts, 中 (neutrophils) (AV) ([1]; 20mg/kg, time 0): 42.2036 n*10^5
cell counts, 巨 (macrophages) (AV) ([1]; 20mg/kg, time 0): 5.64 n*10^5
cell counts, 淋 (lymphocytes) (AV) ([1]; 20mg/kg, time 0): 0.5399 n*10^5
cell counts, total (AV) ([1]; 20mg/kg, time 96): 8.192 n*10^5
cell counts, 中 (neutrophils) (AV) ([1]; 20mg/kg, time 96): 1.83 n*10^5
cell counts, 巨 (macrophages) (AV) ([1]; 20mg/kg, time 96): 3.157 n*10^5
cell counts, 淋 (lymphocytes) (AV) ([1]; 20mg/kg, time 96): 3.205 n*10^5
cell counts, total (AV) ([1]; 20mg/kg, time 192): 2.917 n*10^5
cell counts, 中 (neutrophils) (AV) ([1]; 20mg/kg, time 192): 1.486 n*10^5
cell counts, 巨 (macrophages) (AV) ([1]; 20mg/kg, time 192): 0.8746 n*10^5
cell counts, 淋 (lymphocytes) (AV) ([1]; 20mg/kg, time 192): 0.5558 n*10^5
cell counts, total (AV) ([1]; 40mg/kg, time 0): 47.0528 n*10^5
cell counts, 中 (neutrophils) (AV) ([1]; 40mg/kg, time 0): 40.6758 n*10^5
cell counts, 巨 (macrophages) (AV) ([1]; 40mg/kg, time 0): 4.508 n*10^5
cell counts, 淋 (lymphocytes) (AV) ([1]; 40mg/kg, time 0): 1.869 n*10^5
cell counts, total (AV) ([1]; 40mg/kg, time 96): 7.083 n*10^5
cell counts, 中 (neutrophils) (AV) ([1]; 40mg/kg, time 96): 2.373 n*10^5
cell counts, 巨 (macrophages) (AV) ([1]; 40mg/kg, time 96): 2.398 n*10^5
cell counts, 淋 (lymphocytes) (AV) ([1]; 40mg/kg, time 96): 2.312 n*10^5
cell counts, total (AV) ([1]; 40mg/kg, time 192): 3.683 n*10^5
cell counts, 中 (neutrophils) (AV) ([1]; 40mg/kg, time 192): 1.76 n*10^5
cell counts, 巨 (macrophages) (AV) ([1]; 40mg/kg, time 192): 0.9141 n*10^5
cell counts, 淋 (lymphocytes) (AV) ([1]; 40mg/kg, time 192): 1.009 n*10^5
cell counts, total (AV) ([1]; 80mg/kg, time 0): 35.9167 n*10^5
cell counts, 中 (neutrophils) (AV) ([1]; 80mg/kg, time 0): 31.0489 n*10^5
cell counts, 巨 (macrophages) (AV) ([1]; 80mg/kg, time 0): 3.441 n*10^5
cell counts, 淋 (lymphocytes) (AV) ([1]; 80mg/kg, time 0): 1.427 n*10^5
cell counts, total (AV) ([1]; 80mg/kg, time 96): 2.675 n*10^5
cell counts, 中 (neutrophils) (AV) ([1]; 80mg/kg, time 96): 0.2904 n*10^5
cell counts, 巨 (macrophages) (AV) ([1]; 80mg/kg, time 96): 0.8707 n*10^5
cell counts, 淋 (lymphocytes) (AV) ([1]; 80mg/kg, time 96): 1.514 n*10^5
cell counts, total (AV) ([1]; 80mg/kg, time 192): 2.742 n*10^5
cell counts, 中 (neutrophils) (AV) ([1]; 80mg/kg, time 192): 0.4795 n*10^5
cell counts, 巨 (macrophages) (AV) ([1]; 80mg/kg, time 192): 1.166 n*10^5
cell counts, 淋 (lymphocytes) (AV) ([1]; 80mg/kg, time 192): 1.096 n*10^5
number of cells in BALF four days following treatment cessation ([1]; compound 16C 20, 40, and 80 mg/kg dose groups): lower than that of the positive control
total number of inflammatory cells in BALF compared with the positive controls ([1]; compound 16C low-dose (20 mg/kg IM), after 4 days of treatment (96 h)): not statistically significant
TNF-α in BALF (AV) (TNF-α; compound 16C 20 mg/kg IM, 96 h): 60.6586 pg/mL
TNF-α in BALF (TNF-α; compound 16C 20 mg/kg IM, 96 h): 156.929 pg/mL and 49.4117 pg/mL and 56.9942 pg/mL and 23.2695 pg/mL and 42.5167 pg/mL and 34.8302 pg/mL
TNF-α in BALF (AV) (TNF-α; [6]): 1.835 pg/mL
TNF-α in BALF (TNF-α; [6]): 1.8363 pg/mL and 1.566 pg/mL and 2.372 pg/mL and 2.105 pg/mL and 1.293 pg/mL
TNF-α in BALF (AV) (TNF-α; compound 16C 40 mg/kg IM, 96 h): 10.1817 pg/mL
TNF-α in BALF (TNF-α; compound 16C 40 mg/kg IM, 96 h): 13.0051 pg/mL and 8.3889 pg/mL and 8.57 pg/mL and 9.454 pg/mL and 9.28 pg/mL and 12.3919 pg/mL
TNF-α in BALF (AV) (TNF-α; [7]): 8.528 pg/mL
TNF-α in BALF (TNF-α; [7]): 8.021 pg/mL and 8.206 pg/mL and 7.835 pg/mL and 9.798 pg/mL and 9.105 pg/mL
TNF-α in BALF (AV) (TNF-α; compound 16C 80 mg/kg IM, 96 h): 10.9013 pg/mL
TNF-α in BALF (TNF-α; compound 16C 80 mg/kg IM, 96 h): 5.596 pg/mL and 10.365 pg/mL and 13.376 pg/mL and 12.1685 pg/mL and 14.3215 pg/mL and 9.581 pg/mL
TNF-α in BALF (AV) (TNF-α; [8]): 10.3825 pg/mL
TNF-α in BALF (TNF-α; [8]): 8.923 pg/mL and 7.924 pg/mL and 10.8189 pg/mL and 12.996 pg/mL and 10.1697 pg/mL and 11.4637 pg/mL

— publication PMC11695783 (Frontiers in Pharmacology, 2024)
